Tests used:
[1] = target: T1, 5-HT2B receptor (Homo sapiens, UniProt P41595); test: 5-HT2B functional assay using HTRF quantitation of IP1 accumulation; format: cell-based
[2] = target: T1, 5-HT2B receptor; test: 5-HT2B functional assay, intracellular calcium mobilization; format: cell-based; conditions: FLIPR Tetra, n = 5
[3] = target: T1, 5-HT2B receptor; test: 5-HT2B functional antagonism against serotonin; format: cell-based
[4] = target: T1, 5-HT2B receptor; conditions: binding and functional assays; cited from earlier work
[5] = test system: 5-HT2B receptors in porcine pulmonary arteries; conditions: cited from earlier work
[6] = test system: D2 receptor; conditions: cited from earlier work
[7] = target: T2, D4 (Homo sapiens, UniProt P21917); test: D4 functional assay; format: cell-based; conditions: performed at the PDSP
T2 sequence (P21917 1-419): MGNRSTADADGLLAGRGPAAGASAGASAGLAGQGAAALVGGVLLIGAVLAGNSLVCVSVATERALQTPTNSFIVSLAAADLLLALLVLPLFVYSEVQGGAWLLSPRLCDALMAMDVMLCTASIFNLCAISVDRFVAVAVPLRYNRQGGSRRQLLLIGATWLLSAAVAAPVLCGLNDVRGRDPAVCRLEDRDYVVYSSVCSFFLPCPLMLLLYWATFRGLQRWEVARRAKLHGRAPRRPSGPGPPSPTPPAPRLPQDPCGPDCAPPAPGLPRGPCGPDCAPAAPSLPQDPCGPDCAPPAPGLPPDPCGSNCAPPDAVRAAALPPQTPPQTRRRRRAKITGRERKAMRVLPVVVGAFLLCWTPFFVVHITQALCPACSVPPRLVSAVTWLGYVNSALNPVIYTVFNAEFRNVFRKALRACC

[8] = target: D2 (Homo sapiens, UniProt P14416); test: D2 functional assay; format: cell-based; conditions: performed at the PDSP
Sequence of D2 (P14416 whole entry): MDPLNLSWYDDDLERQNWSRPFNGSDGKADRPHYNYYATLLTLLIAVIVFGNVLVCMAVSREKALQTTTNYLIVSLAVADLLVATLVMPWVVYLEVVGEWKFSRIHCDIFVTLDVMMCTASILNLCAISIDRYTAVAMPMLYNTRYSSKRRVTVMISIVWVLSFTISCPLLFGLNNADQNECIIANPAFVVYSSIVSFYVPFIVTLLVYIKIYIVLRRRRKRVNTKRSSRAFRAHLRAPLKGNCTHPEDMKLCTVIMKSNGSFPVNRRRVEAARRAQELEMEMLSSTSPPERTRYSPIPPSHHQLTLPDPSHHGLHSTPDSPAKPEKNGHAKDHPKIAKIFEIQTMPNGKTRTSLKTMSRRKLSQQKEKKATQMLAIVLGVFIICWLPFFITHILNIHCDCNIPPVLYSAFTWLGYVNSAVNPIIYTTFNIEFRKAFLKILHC

T1 sequence (P41595 whole entry): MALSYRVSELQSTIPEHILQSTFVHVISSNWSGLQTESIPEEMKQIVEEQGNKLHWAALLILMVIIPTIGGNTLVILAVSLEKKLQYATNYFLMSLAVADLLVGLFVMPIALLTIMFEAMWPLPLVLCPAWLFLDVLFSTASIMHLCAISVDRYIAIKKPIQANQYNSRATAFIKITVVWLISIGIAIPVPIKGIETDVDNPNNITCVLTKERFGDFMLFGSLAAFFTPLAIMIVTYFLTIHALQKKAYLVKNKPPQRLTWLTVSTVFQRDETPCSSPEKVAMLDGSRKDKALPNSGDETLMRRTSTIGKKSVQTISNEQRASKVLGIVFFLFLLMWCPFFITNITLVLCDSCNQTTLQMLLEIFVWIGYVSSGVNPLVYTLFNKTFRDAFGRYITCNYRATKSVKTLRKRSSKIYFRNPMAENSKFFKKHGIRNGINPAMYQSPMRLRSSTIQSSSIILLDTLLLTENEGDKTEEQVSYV

COC(OC)[C@@H]1C[C@@H]2c3cccc4c3c(cn4C)C[C@H]2N(C)C1 [Compound 15]
Functionality at the 5-HT2B receptor (IP1 assay) [1]: no agonism | Functionality at the human 5-HT2B receptor (calcium mobilization assay) [2]: no agonism | Antagonism against serotonin at the 5-HT2B receptor [3]: potent antagonists

CN(C)CCCNC(=O)[C@@H]1C[C@@H]2c3cccc4c3c(cn4C)C[C@H]2N(C)C1 [Compound 14]
Functionality at the 5-HT2B receptor (IP1 assay) [1]: minimal to no agonism | Functionality at the human 5-HT2B receptor (calcium mobilization assay) [2]: minimal to no agonism | Antagonism against serotonin at the 5-HT2B receptor [3]: potent antagonists

CC[C@@H](CO)NC(=O)[C@@H]1C=C2c3cccc4[nH]cc(c34)C[C@H]2N(C)C1 [methylergonovine]
Activity at the 5-HT2B receptor [4]: partial agonist

C=CCN1C[C@H](C(=O)N(CCCN(C)C)C(=O)NCC)C[C@@H]2c3cccc4[nH]cc(c34)C[C@H]21 [cabergoline, reference compound]
Functionality at the 5-HT2B receptor (IP1 assay) [1]: full agonists

CC[C@@H](CO)NC(=O)[C@@H]1C=C2c3cccc4c3c(cn4C)C[C@H]2N(C)C1 [methysergide]
Activity at the 5-HT2B receptor [4]: significantly weaker activity

C=CCN1C[C@H](C(=O)N(CCCN2CCOCC2)C(=O)NCC)C[C@@H]2c3cccc4[nH]cc(c34)C[C@H]21 [Compound 1]
Functionality at the 5-HT2B receptor (IP1 assay) [1]: full agonists

CCCN1C[C@H](CSC)C[C@@H]2c3cccc4[nH]cc(c34)C[C@H]21 [pergolide]
Functionality at 5-HT2B receptors in porcine pulmonary arteries [5]: functional agonist | Functionality at the D2 receptor [6]: full agonists

CCNC(=O)N(CCCN(C)C)C(=O)[C@@H]1C[C@@H]2c3cccc4c3c(cn4C)C[C@H]2N(C)C1 [Compound 9, 1,6-Dimethylcabergoline]
Functionality at the 5-HT2B receptor (IP1 assay) [1]: no agonism | Functionality at the human 5-HT2B receptor (calcium mobilization assay) [2]: no agonism | Antagonism against serotonin at the 5-HT2B receptor [3]: potent antagonists | D4 functionality [7]: full D4 agonist | D2 functionality [8]: potent but partial D2 agonist

CSC[C@@H]1C[C@@H]2c3cccc4[nH]cc(c34)C[C@H]2N(C)C1 [6-methylpergolide]
Functionality at the D2 receptor [6]: full agonists

— paper PMC3629922 (ACS medicinal chemistry letters, 2013)
